Data as given in ChEMBL document CHEMBL1156829 (Proc Natl Acad Sci U S A, 2008).

Legend:
[1] = NOVARTIS: Cytotoxicity against human hepatocellular carcinoma cell line (Huh7); format: toxicity, cell-based, Huh-7; details: Huh7 cells (hepatocellular carcinoma cell line)
Plasmodium falciparum [2] = test: NOVARTIS: Inhibition of Plasmodium falciparum W2 (drug-resistant) proliferation in erythrocyte-based infection assay; format: functional, organism-based; details: Plasmodium falciparum, W2; read-out: EC50
Plasmodium falciparum [3] = test: NOVARTIS: Inhibition of Plasmodium falciparum 3D7 (drug-susceptible) proliferation in erythrocyte-based infection assay; format: functional, organism-based; details: Plasmodium falciparum, 3D7

| SMILES | CC50 [1] [nM] | EC50 (Plasmodium falciparum [2]) [nM] | EC50 (Plasmodium falciparum [3]) [nM] |
| --- | --- | --- | --- |
| CCOC(=O)N1CCC(NC(=O)CSCc2nc(-c3cccc(OC)c3)oc2C)CC1 | > 10000 | > 1080 | > 1250 |
| Cc1cccc(NC(=S)NC2CC3CCCC(C2)N3CCc2ccccc2)c1 (stereo not drawn) | 30700 | 914 | 668 |
| CC(C)(C)C1=CC(=C2C=C(C(C)(C)C)SC(C(C)(C)C)=C2)C=C(C(C)(C)C)S1 | > 10000 | 506 | 805 |
| CCC(CO)NCC(O)Cn1c2ccc(Cl)cc2c2cc(Cl)ccc21 (stereo not drawn) | 20100 | 40.6 | 368 |
| CC[n+]1c(/C=C/c2ccc(F)cc2)ccc2ccccc21 | > 10000 | 140 | 122 |
| CCCCOc1ccc(C(=O)NCCOc2cccc(OC)c2)cc1 | > 100000 | > 12500 | 288 |
| COc1cc2c3cc1Oc1c(OC)c(OC)cc4c1C(Cc1ccc(O)c(c1)Oc1ccc(cc1)CC3N(C)CC2)N(C)CC4 (stereo not drawn) | > 10000 | 1060 | 997 |
| Cc1ccc(-n2c(SCc3ccc(F)cc3)nnc2C(Cc2ccccc2)NC(=O)NC(C)(C)C)cc1 (stereo not drawn) | > 62300 | 125 | 330 |
| O=C(c1ccncc1)N1N=C(C(F)(F)F)CC1(O)c1cccc([N+](=O)[O-])c1 (stereo not drawn) | > 10000 | > 1680 | > 1220 |
| CC(=O)Nc1ccc2c(c1)C(=O)N(C(C(=O)NCc1ccccc1)C1CCCCC1)[C@@H](Cc1ccc(O)cc1)C(=O)N2 (stereo partly drawn) | 659 | 555 | 807 |
| CCCCCc1nnc(NC(=O)c2ccc(-c3ccc(OC)cc3)cc2)s1 | > 10000 | 26.7 | 457 |
| CN1C=CC(=Cc2sc3ccccc3[n+]2C)C=C1 | > 100000 | 558 | 208 |
| COc1cc2c(cc1O)CC[n+]1cc3c(OC)c(OC)ccc3cc1-2 [JATRORRHIZINE CHLORIDE] | 8940 | 1660 | 939 |
| CCC(C(=O)NCCCCNc1ccnc2cc(Cl)ccc12)c1ccccc1 (stereo not drawn) | 11500 | 168 | 288 |
| CCOc1cc(C(=O)Nc2ccc(-c3nc4ccccc4[nH]3)cc2)cc(OCC)c1OCC | 40000 | 763 | 229 |
| CCOc1cccc(C2=Nc3cc(C(=O)NC(C)C)ccc3CN2CC2CCCCC2)c1 | > 10000 | 26.7 | > 1250 |
| CCN(CC)CCCC(C)NCc1ccc(OC)c(OCc2ccccc2)c1 (stereo not drawn) | > 10000 | 264 | > 787 |
| CC(C)CN(C(C(=O)NC(CN1CCCC1)c1ccccc1)c1ccccc1)S(=O)(=O)c1ccccn1 (stereo not drawn) | > 10000 | 682 | 1320 |
| C=CCOc1ccc(C2C(C(=O)OCC)=C(C)N=c3sc(=Cc4ccccc4O)c(=O)n32)cc1OCC (stereo not drawn) | 53300 | 263 | 608 |
| CCOC(=O)CN(C)Cc1ccc2c(NC(=O)c3ccc(C)s3)c(C(=O)OC)sc2n1 | > 100000 | 354 | 766 |
| O=Cc1c(OCc2ccc(Cl)cc2Cl)ccc2ccccc12 | > 10000 | 426 | 719 |
| Cc1ccc(NC(=O)C2CSC(c3cccc(F)c3)N2C(=O)c2ccc(C(C)(C)C)cc2)cc1 (stereo not drawn) | > 100000 | 349 | 449 |

| SMILES | CC50 [1] [nM] | EC50 (Plasmodium falciparum [2]) [nM] | EC50 (Plasmodium falciparum [3]) [nM] |
| --- | --- | --- | --- |
| COc1cc2nc(NCc3ccccc3)n3nc(-c4cccnc4)nc3c2cc1OC | > 100000 | 810 | > 12500 |
| Cc1ccc(C#N)c(SCc2nnc(-c3ccc(Cl)cc3)o2)n1 | > 10000 | 108 | > 1250 |
| COC(=O)C1=C(C)NC2=C(C(=O)CC(c3ccc(OC)c(OC)c3)C2)C1c1ccccc1F (stereo not drawn) | > 100000 | 30.6 | 50.5 |
| COc1cc(C2c3[nH]c4ccccc4c3C[C@@H]3C(=O)N(CCc4ccccc4)CC(=O)N23)cc(OC)c1OC (stereo partly drawn) | > 10800 | 161 | 497 |
| COc1ccc(CCN(Cc2ccc(Cl)cc2)S(=O)(=O)c2ccc(S(N)(=O)=O)cc2)cc1OC | 67300 | > 12500 | 4720 |
| CCC(Sc1nnc(-c2ccc(C)cc2)c(-c2ccc(C)cc2)n1)C(=O)NCCOC (stereo not drawn) | 77000 | 753 | 477 |
| CCCC(C)C(C(=O)NCc1ccccc1)N1C(=O)c2cc(NC(C)=O)ccc2NC(=O)[C@@H]1c1ccccc1 (stereo partly drawn) | 9210 | < 7.12 | > 1250 |
| CC(C)CNc1nc(NCCN2CCCCC2)ncc1C(=O)NCc1ccccc1 | > 10000 | > 1250 | 1000 |
| CC(C)CC(=O)OC1C(N2CCCCC2)c2c(ccc(/C=C/C(=O)N3CCCCC3)c2O)OC1(C)C (stereo not drawn) | > 10000 | 975 | 920 |
| Cc1cc(Nc2cc3ccccc3cc2O)n2ncnc2n1 | 1750 | 1290 | 1340 |
| COc1ccc(/C=C2\SC(=Nc3ccc(F)cc3)NC2=O)c(OC)c1 | > 10000 | 543 | 270 |
| COc1ccc(C2=C(c3ccc(OC)cc3)C3C(=O)C2C2C(=O)N(c4cccc5ccccc45)C(=O)C32)cc1 (stereo not drawn) | > 10000 | > 1510 | > 1090 |
| Cc1ccc2nc(Cl)c3cc(C(=O)Nc4ccc(CN5CCC(C)CC5)cc4)sc3c2c1 | > 75800 | 64.9 | 45.1 |
| c1ccc(Cc2nc(NCc3ccc4c(c3)OCO4)c3c4c(sc3n2)CCCC4)cc1 | > 10000 | > 1130 | > 1250 |
| CCCCOc1cccc(C(=O)N(Cc2cccs2)c2ccc(OC)cc2)c1 | 6130 | 62.1 | 124 |
| COc1ccc(C2=C(c3ccc(OC)cc3)C3(c4ccccc4)C(=O)C2(c2ccccc2)C2C(=O)N(c4ccccc4[N+](=O)[O-])C(=O)C23)cc1 (stereo not drawn) | > 100000 | 580 | 1190 |
| CCOC(=O)c1c(C)n(-c2ccccc2)c2ccc(OC(=O)C3CC3)cc12 | > 100000 | 1720 | 749 |
| Cc1cc(-c2cncnc2C2CCN(C(=O)c3cc(C(C)C)n[nH]3)CC2)on1 | > 10000 | > 849 | > 1250 |
| COc1ccc(C2CC(=O)C3=C(C2)NC(C)=C(C(=O)OC2CCCC2)C3c2ccc([N+](=O)[O-])cc2)cc1OC (stereo not drawn) | > 100000 | 14.8 | 31 |
| CCn1cc(C(=O)N2CCC(C(=O)c3nccs3)CC2)c(C)n1 | > 10000 | > 418 | > 1250 |
| c1ccc(C2=NN(c3ccccc3)N(c3ccccc3)N2)cc1 | > 100000 | 129 | 137 |
| CCN(CC)CCNc1nc2cc(OC)c(OC)cc2c2nc(-c3ccccc3)nn12 | 77200 | 1800 | 1670 |

| SMILES | CC50 [1] [nM] | EC50 (Plasmodium falciparum [2]) [nM] | EC50 (Plasmodium falciparum [3]) [nM] |
| --- | --- | --- | --- |
| COc1ccc(-c2noc(CC(=O)Nc3ccccc3C#N)n2)cc1 | > 100000 | 1380 | 6080 |
| c1ccc(C2=NN(c3ccccc3)C(c3ccc4c(c3)OCO4)N2c2ccc(N3CCOCC3)cc2)cc1 (stereo not drawn) | > 10000 | 1780 | 680 |
| O=C(NN=Cc1ccc(O)c(O)c1)/C(=C/c1ccccc1)NC(=O)c1ccccc1 | > 10000 | > 1110 | > 1250 |
| COc1ccc(C(=O)n2nc(N)c3cc4ccc(C)cc4nc32)cc1[N+](=O)[O-] | > 100000 | > 12500 | > 5420 |
| OC(CN1CCN(C2c3ccccc3-c3ccccc32)CC1)Cn1c2ccc(Br)cc2c2cc(Br)ccc21 (stereo not drawn) | > 100000 | 5080 | > 11300 |
| c1ccc2c(c1)ccc[n+]2CCCCCC[n+]1cccc2ccccc21 | > 10000 | 780 | 406 |
| O=C(Nc1cc(Cl)cc(Cl)c1)C1C2C=CC3(O2)C1C(=O)N(CCC1=CCCCC1)C3C(=O)NC1CCCCC1 (stereo not drawn) | > 100000 | 1710 | > 11000 |
| CCN1CCC(N2C[C@H](n3cc(C(=O)OC)nn3)C[C@H]2C(=O)NCc2cccc(C(F)(F)F)c2)CC1 | > 10000 | > 563 | > 1250 |
| NS(=O)(=O)c1ccc(CCNC(=O)/C=C/c2ccc3c(c2)OCO3)cc1 | > 10000 | > 583 | > 1400 |
| NC(=S)NN=CC(=NNC(N)=S)c1ccccc1 | > 10000 | 37.6 | 48.1 |
| CCC(=O)N1CCc2cc(Br)cc(S(=O)(=O)N3CCCCC3CC)c21 (stereo not drawn) | > 100000 | 5700 | 9980 |
| COC(=O)c1cc(NC(=S)NC(=O)c2c(OC)cccc2OC)cc(C(=O)OC)c1 | > 100000 | > 12500 | 5170 |
| CCCCNC(=O)c1ccc(OC2CCN(CC3CCCCC3)CC2)c(Cl)c1 | > 10000 | 270 | 639 |
| CSC1=NC(C)(C)CC2(CC(c3ccc(C)cc3)c3cc(Cl)c(O)cc3O2)N1 (stereo not drawn) | > 10000 | 602 | 993 |
| CC1=C(C(=O)OC(C)C)C(c2ccc([N+](=O)[O-])cc2)C2=C(CC(C)(C)CC2=O)N1 (stereo not drawn) | 40000 | 255 | 1560 |
| CN(CCCNc1ccnc2cc(Cl)ccc12)C(=O)c1ccc(-c2ccccc2)cc1 | 10000 | < 15.6 | 326 |
| CCN1CCN(Cc2cc(Cl)cc(Cl)c2O)CC1 | > 100000 | 529 | 3000 |
| COC(CNc1cc(-c2ccccn2)nc(-c2ccccn2)n1)OC | > 10000 | 633 | 336 |
| CC(Cc1ccccc1Sc1ccccc1O)N(C)C (stereo not drawn) | 34000 | 722 | 2040 |
| Cc1ccccc1CNC(=O)c1oc2c(c1C)-c1[nH]ncc1CC2 | > 10000 | > 914 | > 1250 |
| C=CCc1cccc(C=NNc2nc3ccccc3[nH]2)c1O | > 100000 | 928 | 657 |
| COc1ccc(C2c3[nH]c4ccccc4c3C[C@H]3C(=O)N(CCC(C)C)CC(=O)N23)cc1 (stereo partly drawn) | > 100000 | 497 | 3190 |
